Laboratory results: article PMC8482815, “Targeting Host Glycolysis as a Strategy for Antimalarial Development” (Frontiers in Cellular and Infection Microbiology, 2021)
Several values for one entry are separate records, joined by “and”; a condition that tells them apart may be missing. Equal entries are not always repeated.

Tested on: human erythrocytes
Test: Untargeted metabolomics and 13C-glucose tracing of enolase inhibitor treated erythrocytes
Format: cell-based
Conditions: 0.5h
Protocol: Freshly collected erythrocytes were washed, resuspended to 10% hematocrit in buffer [25mM HEPES (pH 7.4), 120mM NaCl, 5.4mM KCl, 1.8mM CaCl2, and 1mM NaH2PO4], incubated for 1 hour at 37°C, then centrifuged at 2000xg for 5 minutes at 4°C, resuspended in fresh wash buffer to 30-40% hematocrit, and split into 210µL aliquots of packed erythrocytes. […] All samples were incubated at 37°C shaking at 500 RPM. Triplicate samples of supernatants and packed erythrocytes were collected at 0, 0.5, 1, and 6-hour intervals and snap-frozen in liquid N2.
RBC and media samples were extracted at 1:10 and 1:20 dilutions, respectively, in 5:3:2 MeOH : MeCN:H2O v/v/v, and supernatants analyzed on a Thermo Vanquish UHPLC coupled to a Thermo Q Exactive mass spectrometer, as extensively described ([Nemkov et al., 2015]; [Nemkov et al., 2017]). The extraction buffer was supplemented with 40uM 3-^13C lactate to allow absolute quantification of lactate isotopologues, including lactate generated via glycolysis ([1,2,3-^13C3] enriched) vs. the pentose phosphate pathway ([2,3-^13C2] enriched), as described ([Reisz et al., 2016]). Metabolite assignments, peak area integration and isotopologues distributions were determined using Maven (Princeton University) ([Nemkov et al., 2015]; [Nemkov et al., 2017]).
Data were auto-scaled and normalized to zero-hour time points. Metabolites were removed from the dataset if greater than 50% of the samples contained missing values or the relative standard deviation among replicates exceeded 25%. Additionally, data was filtered using the interquartile range to reduce near-constant values from the experiment by 5%.
A principal component analysis of preprocessed data was plotted with the 95% confidence interval minimum volume enclosing ellipsoid for each respective group (MetaboAnalyst, cluster, plotly). A two-way repeated measures analysis of variance (ANOVA) was performed with multiple comparisons corrected for using a false discovery rate p-value cutoff of 0.05. Metabolite-Pathway analysis was performed using the R package of MetaboAnalyst, as previously described ([Xia and Wishart, 2010]). Metabolite-Protein nodal analysis was performed using omicsnet.ca and as previously described ([Zhou and Xia, 2018]).

[1] = treated erythrocytes, one value per replicate sample, polarity +
[2] = treated erythrocytes, one value per replicate sample, polarity -
[3] = treated erythrocytes, replicate samples

CC(C)(C)C(=O)OCOP(=O)(OCOC(=O)C(C)(C)C)C1CC(O)N(O)C1=O (stereo not shown) [POMSF]
AMP level (metabolomics signal) (replicate samples): 2.22E+06 and 1.69E+06 and 1.24E+06
ATP level (metabolomics signal) (replicate samples): 6.37E+03 and 8.43E+03 and 5.73E+03
Adenine level (metabolomics signal) (replicate samples): 1.92E+05 and 1.77E+05 and 1.67E+05
Cytosine level (metabolomics signal) (replicate samples): 5.62E+05 and 5.81E+05 and 5.75E+05
L-alanine level (metabolomics signal) (replicate samples): 8.49E+06 and 9.99E+06 and 1.01E+07
L-arginine level (metabolomics signal) (replicate samples): 8.18E+06 and 5.94E+06 and 8.91E+06
L-asparagine level (metabolomics signal) (replicate samples): 3.70E+06 and 4.01E+06 and 4.49E+06
L-aspartate level (metabolomics signal) (replicate samples): 3.38E+07 and 3.70E+07 and 4.18E+07
L-cysteine level (metabolomics signal) (replicate samples): 5.61E+05 and 2.55E+05 and 1.58E+05
L-glutamate level (metabolomics signal) (replicate samples): 3.26E+07 and 3.43E+07 and 3.68E+07
L-glutamine level (metabolomics signal) (replicate samples): 3.77E+07 and 4.04E+07 and 5.11E+07
L-histidine level (metabolomics signal) (replicate samples): 1.39E+06 and 1.38E+06 and 1.35E+06
L-isoleucine level (metabolomics signal) (replicate samples): 1.79E+07 and 1.67E+07 and 1.69E+07
L-leucine level (metabolomics signal) (replicate samples): 1.70E+08 and 1.83E+08 and 2.03E+08
L-lysine level (metabolomics signal) (replicate samples): 2.70E+06 and 2.39E+06 and 2.59E+06
L-methionine level (metabolomics signal) (replicate samples): 1.52E+07 and 1.66E+07 and 1.85E+07
L-phenylalanine level (metabolomics signal) (replicate samples): 8.08E+06 and 8.86E+06 and 1.12E+07
L-proline level (metabolomics signal) (replicate samples): 4.22E+07 and 3.45E+07 and 3.96E+07
L-serine level (metabolomics signal) (replicate samples): 2.93E+06 and 2.66E+06 and 3.79E+06
L-threonine level (metabolomics signal) (replicate samples): 5.71E+06 and 5.05E+06 and 5.98E+06
L-tryptophan level (metabolomics signal) (replicate samples): 5.93E+06 and 3.78E+06 and 4.71E+06
L-tyrosine level (metabolomics signal) (replicate samples): 1.94E+07 and 2.09E+07 and 2.16E+07
L-valine level (metabolomics signal) (replicate samples): 1.34E+08 and 1.45E+08 and 1.42E+08
dCMP level (metabolomics signal) (replicate samples): 1.87E+04 and 1.84E+04 and 1.76E+04
dTMP level (metabolomics signal) (replicate samples): 1.29E+06 and 8.42E+05 and 1.18E+06
glycine level (metabolomics signal) (replicate samples): 1.56E+06 and 1.61E+06 and 1.75E+06
N-Acyl-D-aspartate (C06380) metabolite signal [1]: 2.47E+05 and 3.01E+05 and 2.50E+05
Poly-gamma-D-glutamate (C05723) metabolite signal [1]: 2.49E+07 and 2.77E+07 and 3.43E+07
D-Ribitol 5-phosphate (C01068) metabolite signal [2]: 1.89E+04 and 2.70E+04 and 1.78E+04
D-glucono-1,5-lactone (C00198) metabolite signal [2]: 5.20E+05 and 6.45E+05 and 5.70E+05
L-Noradrenaline (C00547) metabolite signal [2]: 5.30E+04 and 6.26E+04 and 5.84E+04
Oxalosuccinate (C05379) metabolite signal [2]: 1.60E+05 and 1.51E+05 and 1.30E+05
Pyridoxamine (C00534) metabolite signal [2]: 4.35E+04 and 3.15E+04 and 3.96E+04
Thioredoxin disulfide (C00343) metabolite signal [2]: 4.45E+04 and 2.53E+04 and 3.52E+04
1-4-beta-D-Xylan (metabolite signal) [3]: 2.42E+05 and 2.55E+05 and 2.51E+05
2-Hydroxyglutarate/Citramalate (C02630) metabolite signal [3]: 8.78E+04 and 9.72E+04 and 1.18E+05
5-6-Dihydrothymine (C00906) metabolite signal [3]: 3.10E+05 and 2.80E+05 and 2.87E+05
5-10-Methenyltetrahydrofolate (metabolite signal) [3]: 3.54E+05 and 4.17E+05 and 3.24E+05
5-Hydroxyisourate (C11821) metabolite signal [3]: 5.17E+06 and 5.16E+06 and 5.68E+06
5-L-Glutamyl-taurine (metabolite signal) [3]: 1.45E+05 and 1.54E+05 and 1.36E+05
5-Oxoproline (metabolite signal) [3]: 8.54E+05 and 9.65E+05 and 9.67E+05
(S)(+)-Allantoin (C02350) metabolite signal [3]: 4.35E+04 and 3.58E+04 and 0.00E+00
Allantoate (C00499) metabolite signal [3]: 2.71E+05 and 2.04E+05 and 2.56E+05
Ascorbate (metabolite signal) [3]: 9.30E+04 and 6.85E+04 and 1.08E+05
CMP-N-acetylneuraminate (metabolite signal) [3]: 1.38E+04 and 2.26E+04 and 3.45E+04
Carnosine (metabolite signal) [3]: 2.64E+05 and 2.93E+05 and 2.91E+05
Citrate (C00158) metabolite signal [3]: 2.63E+04 and 3.23E+04 and 3.56E+04
Creatine (metabolite signal) [3]: 2.99E+08 and 3.28E+08 and 3.02E+08
Creatinine (metabolite signal) [3]: 3.46E+06 and 3.25E+06 and 2.95E+06
Cys-Gly (metabolite signal) [3]: 2.55E+06 and 2.28E+06 and 2.13E+06
D-Glucosamine (metabolite signal) [3]: 1.73E+05 and 2.02E+05 and 1.88E+05
D-Glucose (C00031) metabolite signal [3]: 6.07E+06 and 5.64E+06 and 6.25E+06
D-Ribose (C00121) metabolite signal [3]: 1.75E+05 and 2.10E+05 and 1.84E+05
Dehydroascorbate (metabolite signal) [3]: 1.78E+04 and 9.28E+03 and 1.77E+04
Dihydrofolate (metabolite signal) [3]: 1.24E+06 and 6.72E+05 and 1.27E+06
Dimethylglycine (metabolite signal) [3]: 1.14E+06 and 1.17E+06 and 1.06E+06
Diphosphate (C00013) metabolite signal [3]: 3.26E+03 and 1.34E+03 and 1.52E+03
Fumarate (C00122) metabolite signal [3]: 1.08E+05 and 1.33E+05 and 1.27E+05
Glutathione (C00051) metabolite signal [3]: 1.64E+08 and 1.52E+08 and 1.45E+08
Glutathione disulfide (metabolite signal) [3]: 1.36E+05 and 2.52E+05 and 3.91E+05
Hypoxanthine (C00262) metabolite signal [3]: 6.53E+04 and 4.36E+04 and 3.66E+04
IMP (C00130) metabolite signal [3]: 9.13E+04 and 0.00E+00 and 4.11E+04
Inosine (C00294) metabolite signal [3]: 9.07E+04 and 1.09E+05 and 1.15E+05
L-Citrulline (metabolite signal) [3]: 3.18E+06 and 3.52E+06 and 3.48E+06
L-Homoserine (metabolite signal) [3]: 2.14E+05 and 2.01E+05 and 2.23E+05
Lactate (C01432) metabolite signal [3]: 9.04E+06 and 8.73E+06 and 8.57E+06
Malate (C00149) metabolite signal [3]: 1.84E+05 and 2.15E+05 and 2.30E+05
Mannitol (C00392) metabolite signal [3]: 1.48E+05 and 1.43E+05 and 1.44E+05
N-Acetylneuraminate (metabolite signal) [3]: 2.84E+04 and 2.76E+04 and 2.63E+04
N-Glycoloyl-neuraminate (metabolite signal) [3]: 1.80E+05 and 1.43E+05 and 1.72E+05
NAD+ (C00003) metabolite signal [3]: 7.76E+04 and 1.99E+05 and 4.14E+05
Nicotinamide (C00153) metabolite signal [3]: 3.69E+07 and 3.94E+07 and 3.72E+07
Ornithine (metabolite signal) [3]: 2.34E+06 (2×) and 2.32E+06
Oxaloacetate (C00036) metabolite signal [3]: 4.10E+04 and 3.82E+04 and 3.53E+04
Phosphoserine (metabolite signal) [3]: 5.43E+04 and 2.60E+05 and 7.13E+04
Putrescine (metabolite signal) [3]: 8.30E+04 and 7.12E+04 and 6.80E+04
Pyridoxal (C00250) metabolite signal [3]: 7.95E+04 and 8.76E+04 and 8.42E+04
Pyruvate (C00022) metabolite signal [3]: 6.67E+05 and 7.32E+05 and 6.75E+05
S-Glutathionyl-L-cysteine (metabolite signal) [3]: 6.44E+04 and 8.58E+04 and 2.21E+05
Sedoheptulose 1-phosphate (C06222) metabolite signal [3]: 1.56E+04 and 1.68E+04 and 1.80E+04
Spermidine (metabolite signal) [3]: 9.65E+06 and 9.19E+06 and 9.18E+06
Spermine (metabolite signal) [3]: 9.74E+06 and 8.90E+06 and 1.00E+07
Succinate (C00042) metabolite signal [3]: 9.57E+04 and 9.51E+04 and 9.45E+04
Thymidine (C00214) metabolite signal [3]: 1.34E+04 and 1.17E+04 and 1.87E+04
UDP (C00015) metabolite signal [3]: 2.09E+05 and 1.18E+05 and 1.38E+05
UDP-N-acetyl-D-glucosamine (metabolite signal) [3]: 1.55E+04 and 2.01E+04 and 2.26E+04
UDP-glucose (C00029) metabolite signal [3]: 3.09E+04 and 3.55E+04 and 4.15E+04
Urate (C00366) metabolite signal [3]: 3.51E+04 and 2.72E+04 and 2.68E+04
Xanthine (C00385) metabolite signal [3]: 3.66E+05 and 3.57E+05 and 3.29E+05
alpha-D-Glucosamine 1-phosphate (metabolite signal) [3]: 2.09E+06 and 2.40E+06 and 2.18E+06
alpha-D-Ribose 1-phosphate (C00620) metabolite signal [3]: 1.08E+05 and 8.84E+04 and 1.07E+05
gamma-Glutamyl-gamma-aminobutyrate (metabolite signal) [3]: 9.93E+04 and 1.32E+05 and 1.00E+05
gamma-L-Glutamyl-D-alanine (metabolite signal) [3]: 3.99E+04 and 3.09E+04 and 3.31E+04
gamma-L-Glutamyl-L-cysteine (metabolite signal) [3]: 1.39E+04 and 2.39E+04 and 2.36E+04
